Measured values taken from ChEMBL document CHEMBL3045575, “Synthesis of tetracyclic aza-/oxa-naphthalen-8-ones and their antimicrobial activity” (2013).

Tests used:
Assay type in all cases: functional
Micrococcus luteus = assay: Antibacterial activity against Micrococcus luteus at 100 ppm after 24 hr by cup-plate method; conditions: read-out: IZ
Escherichia coli = assay: Antibacterial activity against Escherichia coli at 100 ppm after 24 hr by cup-plate method; conditions: read-out: IZ
Staphylococcus aureus = assay: Antibacterial activity against Staphylococcus aureus at 100 ppm after 24 hr by cup-plate method; conditions: read-out: IZ
Fusarium graminearum = assay: Antifungal activity against Fusarium graminearum at 100 ug after 7 days by poison-food method; conditions: 168 h, read-out: IZ

CC1(C)S[C@@H]2[C@H](NC(=O)[C@H](N)c3ccccc3)C(=O)N2[C@H]1C(=O)O [AMPICILLIN]
zone of inhibition at 100 ppm (Micrococcus luteus): 5 mm
zone of inhibition at 100 ppm (Escherichia coli): 4 mm
zone of inhibition at 100 ppm (Staphylococcus aureus): 5 mm

Cc1ccc(N2C(=O)CC3c4ccc5ccccc5c4OC32)cc1 (stereo not drawn)
zone of inhibition at 100 µg/disc (Fusarium graminearum): 50 mm
zone of inhibition at 100 ppm (Micrococcus luteus): 18 mm
zone of inhibition at 100 ppm (Escherichia coli): 10 mm
zone of inhibition at 100 ppm (Staphylococcus aureus): 11 mm

O=C1CC2c3ccc4ccccc4c3OC2N1c1ccc([N+](=O)[O-])cc1 (stereo not drawn)
zone of inhibition at 100 µg/disc (Fusarium graminearum): 25 mm
zone of inhibition at 100 ppm (Micrococcus luteus): 10 mm
zone of inhibition at 100 ppm (Escherichia coli): 8 mm
zone of inhibition at 100 ppm (Staphylococcus aureus): 8 mm

O=C1CC2c3ccc4ccccc4c3OC2O1 (stereo not drawn)
zone of inhibition at 100 µg/disc (Fusarium graminearum): 45 mm
zone of inhibition at 100 ppm (Micrococcus luteus): 10 mm
zone of inhibition at 100 ppm (Escherichia coli): 11 mm
zone of inhibition at 100 ppm (Staphylococcus aureus): 10 mm

O=C1CC2c3ccc4ccccc4c3OC2N1c1ccccc1 (stereo not drawn)
zone of inhibition at 100 µg/disc (Fusarium graminearum): 45 mm
zone of inhibition at 100 ppm (Micrococcus luteus): 11 mm
zone of inhibition at 100 ppm (Escherichia coli): 11 mm
zone of inhibition at 100 ppm (Staphylococcus aureus): 10 mm

O=C1CC2c3ccc4ccccc4c3OC2N1c1cccc([N+](=O)[O-])c1 (stereo not drawn)
zone of inhibition at 100 µg/disc (Fusarium graminearum): 25 mm
zone of inhibition at 100 ppm (Micrococcus luteus): 9 mm
zone of inhibition at 100 ppm (Escherichia coli): 9 mm
zone of inhibition at 100 ppm (Staphylococcus aureus): 21 mm
